Where “and” joins values, the source holds several entries; their conditions need not be identical. Identical values can stand only once. Inconclusive results and toxic doses are left out.
Test system: P388 leukemia ip, CD2F1 mice, survival T/C
Assay: NCI In Vivo Anticancer Drug Screen. Data for tumor model P388 Leukemia (intraperitoneal) in CD2F1 (CDF1) mice
Details: endpoint: median survival time, higher = longer survival
In short: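 Mice carrying the transplanted tumor received test compound or vehicle. Survival was recorded in each group, and the value is the treated-group measurement divided by that of the vehicle-treated control group.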

[1] = dose: 100.0 mg/kg/injection, schedule: Q04DX003 (ip), vehicle: saline with Tween-80
[2] = dose: 200.0 mg/kg/injection, schedule: Q04DX003 (ip), vehicle: saline with Tween-80
[3] = dose: 400.0 mg/kg/injection, schedule: Q04DX003 (ip), vehicle: saline with Tween-80
[4] = dose: 60.0 mg/kg/injection, schedule: Q01DX005 (ip), vehicle: saline with Tween-80
[5] = dose: 120.0 mg/kg/injection, schedule: Q01DX005 (ip), vehicle: saline with Tween-80
[6] = dose: 240.0 mg/kg/injection, schedule: Q01DX005 (ip), vehicle: saline with Tween-80
[7] = dose: 50.0 mg/kg/injection, schedule: Q01DX005 (ip), vehicle: Klucel (hydroxypropylcellulose) (HPC)
[8] = dose: 100.0 mg/kg/injection, schedule: Q01DX005 (ip), vehicle: Klucel (hydroxypropylcellulose) (HPC)
[9] = dose: 200.0 mg/kg/injection, schedule: Q01DX005 (ip), vehicle: Klucel (hydroxypropylcellulose) (HPC)
[10] = dose: 6.25 mg/kg/injection, schedule: Q01DX005 (ip), vehicle: Klucel (hydroxypropylcellulose) (HPC)
[11] = dose: 25.0 mg/kg/injection, schedule: Q01DX005 (ip), vehicle: Klucel (hydroxypropylcellulose) (HPC)
[12] = dose: 12.5 mg/kg/injection, schedule: Q01DX005 (ip), vehicle: Klucel (hydroxypropylcellulose) (HPC)
[13] = dose: 60.0 mg/kg/injection, schedule: Q01DX005 (ip), vehicle: Klucel (hydroxypropylcellulose) (HPC)
[14] = dose: 120.0 mg/kg/injection, schedule: Q01DX005 (ip), vehicle: Klucel (hydroxypropylcellulose) (HPC)
[15] = dose: 240.0 mg/kg/injection, schedule: Q01DX005 (ip), vehicle: Klucel (hydroxypropylcellulose) (HPC)

SMILES: COc1cc(O)c(/C=N/Nc2ccc3ccccc3n2)c(OC)c1
- T/C (dose: 100.0 mg/kg/injection, schedule: Q01DX001 (ip), vehicle: saline with Tween-80): 91 % of control
- T/C (dose: 200.0 mg/kg/injection, schedule: Q01DX001 (ip), vehicle: saline with Tween-80): 104 % of control
- T/C (dose: 400.0 mg/kg/injection, schedule: Q01DX001 (ip), vehicle: saline with Tween-80): 89 % of control

SMILES: O=C(O)C1CCC(=O)N1C(=O)OCc1ccccc1 (centres undefined)
- T/C [1]: 95 % of control
- T/C [2]: 90 % of control
- T/C [3]: 90 % of control

SMILES: O=C(O)CCN1C(=O)CCC1=O
- T/C [1]: 100 % of control
- T/C [2]: 95 % of control
- T/C [3]: 91 % of control

SMILES: CCCCC/C(=C\c1ccccc1)C1OCC(COCC)O1 (centres undefined)
- T/C (dose: 100.0 mg/kg/injection, schedule: Q01DX009 (ip), vehicle: saline + Tween-80 + alcohol): 119 % of control
- T/C (dose: 200.0 mg/kg/injection, schedule: Q01DX009 (ip), vehicle: saline + Tween-80 + alcohol): 118 % of control

SMILES: C=CN=NNc1ccc(OC)cc1
- T/C (dose: 100.0 mg/kg/injection, schedule: Q04DX003 (ip), vehicle: saline + Tween-80 + alcohol): 116 % of control
- T/C (dose: 200.0 mg/kg/injection, schedule: Q04DX003 (ip), vehicle: saline + Tween-80 + alcohol): 106 % of control

SMILES: O=S1(=O)CCC2CCCCC2C1 (centres undefined)
- T/C (dose: 6.25 mg/kg/injection, schedule: Q01DX009 (ip), vehicle: saline with Tween-80): 109 % of control
- T/C (dose: 12.5 mg/kg/injection, schedule: Q01DX009 (ip), vehicle: saline with Tween-80): 100 % of control

SMILES: CCOC(=O)c1cnc2ccc(C3CCCCC3)cc2c1Nc1ccc2c(c1)OCO2
- T/C [4]: 99 % of control
- T/C [5]: 91 % of control
- T/C [6]: 91 % of control

SMILES: O=C(OCCn1c(=O)n(CCOC(=O)c2cccc([N+](=O)[O-])c2)c(=O)n(CCOC(=O)c2cccc([N+](=O)[O-])c2)c1=O)c1cccc([N+](=O)[O-])c1
- T/C (dose: 100.0 mg/kg/injection, schedule: Q04DX003 (ip), vehicle: Klucel (hydroxypropylcellulose) (HPC)): 93 % of control
- T/C (dose: 200.0 mg/kg/injection, schedule: Q04DX003 (ip), vehicle: Klucel (hydroxypropylcellulose) (HPC)): 86 % of control
- T/C (dose: 400.0 mg/kg/injection, schedule: Q04DX003 (ip), vehicle: Klucel (hydroxypropylcellulose) (HPC)): 87 % of control

SMILES: C=CCNc1ncnc2c1cnn2C
- T/C (dose: 50.0 mg/kg/injection, schedule: Q04DX003 (ip), vehicle: saline with Tween-80): 104 % of control
- T/C [1]: 104 % of control

SMILES: O=C(O)CCOc1cccc(OCCC(=O)O)c1
- T/C [7]: 102 % of control
- T/C [8]: 98 % of control
- T/C [9]: 99 % of control

SMILES: Nc1ccc(N=N/C(=N\Nc2ccccc2[As](=O)(O)O)C(=O)Nc2ccccc2)c(Cl)c1
- T/C [10]: 119 % of control
- T/C [11]: 117 % of control
- T/C [7]: 110 % of control and 123 % of control

SMILES: ClCc1nsc(Cl)n1
- T/C [12]: 93 % of control
- T/C [11]: 98 % of control
- T/C [7]: 104 % of control and 93 % of control

SMILES: Cc1ccc2nc(NC(=S)S)sc2c1
- T/C (dose: 6.25 mg/kg/injection, schedule: Q01DX009 (ip), vehicle: Klucel (hydroxypropylcellulose) (HPC)): 100 % of control
- T/C (dose: 12.5 mg/kg/injection, schedule: Q01DX009 (ip), vehicle: Klucel (hydroxypropylcellulose) (HPC)): 107 % of control
- T/C (dose: 25.0 mg/kg/injection, schedule: Q01DX009 (ip), vehicle: Klucel (hydroxypropylcellulose) (HPC)): 113 % of control
- T/C (dose: 100.0 mg/kg/injection, schedule: Q01DX009 (ip), vehicle: Klucel (hydroxypropylcellulose) (HPC)): 87 % of control

SMILES: COc1ccc(C)cc1NC(=O)SC(C)C
- T/C [13]: 89 % of control
- T/C [14]: 86 % of control
- T/C [15]: 93 % of control

SMILES: CCOC(=O)/C(C#N)=C/NCC1CC1
- T/C [13]: 102 % of control
- T/C [14]: 98 % of control
- T/C [15]: 98 % of control

SMILES: COc1cccnc1/C=N/NC(N)=S
- T/C (dose: 3.13 mg/kg/injection, schedule: Q01DX009 (ip), vehicle: saline with Tween-80): 124 % of control

SMILES: COc1cc(/C=C/Cc2cc3c(cc2OCCO)OCO3)cc(OC)c1OC
- T/C [4]: 94 % of control
- T/C [5]: 92 % of control
- T/C [6]: 101 % of control

SMILES: CCCCN(CCCC)C(=N)c1ccc(OC)c(OC)c1
- T/C (dose: 6.25 mg/kg/injection, schedule: Q01DX005 (ip), vehicle: saline): 98 % of control
- T/C (dose: 12.5 mg/kg/injection, schedule: Q01DX005 (ip), vehicle: saline): 100 % of control
- T/C (dose: 25.0 mg/kg/injection, schedule: Q01DX005 (ip), vehicle: saline): 100 % of control

SMILES: CC(CN(C)C)C(/C=C/c1ccccc1)=N\Nc1ccccc1 (centres undefined)
- T/C (dose: 15.0 mg/kg/injection, schedule: Q01DX005 (ip), vehicle: saline): 98 % of control
- T/C (dose: 30.0 mg/kg/injection, schedule: Q01DX005 (ip), vehicle: saline): 103 % of control
- T/C (dose: 60.0 mg/kg/injection, schedule: Q01DX005 (ip), vehicle: saline): 99 % of control and 107 % of control

SMILES: CN(C)CCN1c2ccccc2Sc2ccc3ccccc3c21
- T/C (dose: 50.0 mg/kg/injection, schedule: Q01DX005 (ip), vehicle: saline + Tween-80 + alcohol): 104 % of control
- T/C (dose: 100.0 mg/kg/injection, schedule: Q01DX005 (ip), vehicle: saline + Tween-80 + alcohol): 107 % of control
- T/C (dose: 200.0 mg/kg/injection, schedule: Q01DX005 (ip), vehicle: saline + Tween-80 + alcohol): 107 % of control

SMILES: N#CC(Cl)CNC(=O)Oc1ccccc1 (centres undefined)
- T/C [7]: 97 % of control

SMILES: O=C1CN(Cc2ccccc2)CC(=O)N2Cc3ccccc3CN12
- T/C (dose: 12.5 mg/kg/injection, schedule: Q01DX005 (ip), vehicle: saline with Tween-80): 98 % of control
- T/C (dose: 25.0 mg/kg/injection, schedule: Q01DX005 (ip), vehicle: saline with Tween-80): 105 % of control
- T/C (dose: 50.0 mg/kg/injection, schedule: Q01DX005 (ip), vehicle: saline with Tween-80): 102 % of control

SMILES: NC(Cc1ccccc1)C(=O)OCN1C(=O)C2C3C=CC(C2C1=O)C1C2C(=O)N(COC(=O)C(N)Cc4ccccc4)C(=O)C2C31 (centres undefined)
- T/C (dose: 12.5 mg/kg/injection, schedule: Q01DX009 (ip), vehicle: water): 103 % of control
- T/C (dose: 25.0 mg/kg/injection, schedule: Q01DX009 (ip), vehicle: saline): 100 % of control and 102 % of control
- T/C (dose: 25.0 mg/kg/injection, schedule: Q01DX009 (ip), vehicle: water): 106 % of control and 113 % of control and 103 % of control
- T/C (dose: 50.0 mg/kg/injection, schedule: Q01DX009 (ip), vehicle: saline): 110 % of control
- T/C (dose: 50.0 mg/kg/injection, schedule: Q01DX009 (ip), vehicle: water): 109 % of control and 124 % of control
- T/C (dose: 100.0 mg/kg/injection, schedule: Q01DX009 (ip), vehicle: saline): 184 % of control
- T/C (dose: 100.0 mg/kg/injection, schedule: Q01DX009 (ip), vehicle: water): 189 % of control and 197 % of control
- T/C (dose: 150.0 mg/kg/injection, schedule: Q01DX009 (ip), vehicle: saline): 192 % of control

SMILES: CCOC(=O)C(/C=N/NS(=O)(=O)c1ccc(C)cc1)c1ccccc1 (centres undefined)
- T/C (dose: 100.0 mg/kg/injection, schedule: Q04DX002 (ip), vehicle: saline): 96 % of control
- T/C (dose: 200.0 mg/kg/injection, schedule: Q04DX002 (ip), vehicle: saline): 94 % of control
- T/C (dose: 400.0 mg/kg/injection, schedule: Q04DX002 (ip), vehicle: saline): 97 % of control

SMILES: CC[OH+]CC[OH+]CC[OH+]C1CCCC2CCC[N-]C21.[Cl][Cu][Cl] (centres undefined)
- T/C [10]: 97 % of control
- T/C [12]: 92 % of control

SMILES: COc1cc2c(cc1OC)C1N(CC2)C(=O)NC1(C)C (centres undefined)
- T/C [4]: 97 % of control
- T/C [5]: 103 % of control
- T/C [6]: 98 % of control

SMILES: CC1=C(C#N)C(=O)OC1(C)C(CC(=O)c1ccccc1)c1ccccc1 (centres undefined)
- T/C [4]: 92 % of control
- T/C [5]: 87 % of control
- T/C [6]: 91 % of control

SMILES: OC12CCCCC1CCCS2 (centres undefined)
- T/C (dose: 100.0 mg/kg/injection, schedule: Q04DX003 (ip), vehicle: saline): 98 % of control
- T/C (dose: 200.0 mg/kg/injection, schedule: Q04DX003 (ip), vehicle: saline): 94 % of control
- T/C (dose: 400.0 mg/kg/injection, schedule: Q04DX003 (ip), vehicle: saline): 102 % of control

SMILES: O=C(O)c1c2c(nc3ccccc13)-c1ccccc1C2
- T/C [7]: 102 % of control
- T/C [8]: 93 % of control
- T/C [9]: 89 % of control

— PubChem BioAssay AID330 (DTP/NCI, 2004)
